Results published in the kinase profiling compilation of Christmann-Franck et al. (2016).
Several values for one entry are separate records, joined by “and”; a condition that tells them apart may be missing. Equal entries are not always repeated.

What was measured:
Test in all cases: radiometric filter-binding kinase assay, Kinase HotSpot
Details in all cases: compound 0.5 µM; ATP 10 µM
ADRBK2 (human) = ADRBK2 (human) (UniProt P35626)
AKT3 (human) = AKT3 (human) (UniProt Q9Y243)
ALK (human) = ALK (human) (UniProt Q9UM73)
CAMK1D (human) = CAMK1D (human) (UniProt Q8IU85)
CDC42BPB (human) = CDC42BPB (human) (UniProt Q9Y5S2)
CDK5 CDK5R1 p35 (human) = CDK5 CDK5R1 p35 (human) (UniProt Q00535+Q15078)
CDK9 CCNT1 (human) = CDK9 CCNT1 (human) (UniProt P50750+O60563)
CHUK (human) = CHUK (human) (UniProt O15111)
CLK3 (human) = CLK3 (human) (UniProt P49761)
CSNK1E (human) = CSNK1E (human) (UniProt P49674)
CSNK2A2 (human) = CSNK2A2 (human) (UniProt P19784)
EPHA2 (human) = EPHA2 (human) (UniProt P29317)
EPHA5 (human) = EPHA5 (human) (UniProt P54756)
ERBB4 (human) = ERBB4 (human) (UniProt Q15303)
FGFR4 (human) = FGFR4 (human) (UniProt P22455)
GRK4 (human) = GRK4 (human) (UniProt P32298)
HIPK3 (human) = HIPK3 (human) (UniProt Q9H422)
IKBKB (human) = IKBKB (human) (UniProt O14920)
MAP3K11 (human) = MAP3K11 (human) (UniProt Q16584)
MAPK1 (human) = MAPK1 (human) (UniProt P28482)
MAPK12 (human) = MAPK12 (human) (UniProt P53778)
MAPK13 (human) = MAPK13 (human) (UniProt O15264)
MAPK3 (human) = MAPK3 (human) (UniProt P27361)
MARK4 (human) = MARK4 (human) (UniProt Q96L34)
NLK (human) = NLK (human) (UniProt Q9UBE8)
NTRK1 (human) = NTRK1 (human) (UniProt P04629)
NTRK2 (human) = NTRK2 (human) (UniProt Q16620)
NTRK3 (human) = NTRK3 (human) (UniProt Q16288)
PAK3 (human) = PAK3 (human) (UniProt O75914)
PKN2 (human) = PKN2 (human) (UniProt Q16513)
PRKACA (human) = PRKACA (human) (UniProt P17612)
PRKCE (human) = PRKCE (human) (UniProt Q02156)
PRKG1 (human) = PRKG1 (human) (UniProt Q13976)
PRKG2 (human) = PRKG2 (human) (UniProt Q13237)
RAF1 (human) = RAF1 (human) (UniProt P04049)
ROCK2 (human) = ROCK2 (human) (UniProt O75116)
STK11 (human) = STK11 (human) (UniProt Q15831)
TGFBR2 (human) = TGFBR2 (human) (UniProt P37173)
TSSK1B (human) = TSSK1B (human) (UniProt Q9BXA7)
ULK1 (human) = ULK1 (human) (UniProt O75385)
WNK3 (human) = WNK3 (human) (UniProt Q9BYP7)
PRKCG (human) = PRKCG (human) (UniProt P05129)

EPHA5 (human), sequence (P54756 whole entry, looked up): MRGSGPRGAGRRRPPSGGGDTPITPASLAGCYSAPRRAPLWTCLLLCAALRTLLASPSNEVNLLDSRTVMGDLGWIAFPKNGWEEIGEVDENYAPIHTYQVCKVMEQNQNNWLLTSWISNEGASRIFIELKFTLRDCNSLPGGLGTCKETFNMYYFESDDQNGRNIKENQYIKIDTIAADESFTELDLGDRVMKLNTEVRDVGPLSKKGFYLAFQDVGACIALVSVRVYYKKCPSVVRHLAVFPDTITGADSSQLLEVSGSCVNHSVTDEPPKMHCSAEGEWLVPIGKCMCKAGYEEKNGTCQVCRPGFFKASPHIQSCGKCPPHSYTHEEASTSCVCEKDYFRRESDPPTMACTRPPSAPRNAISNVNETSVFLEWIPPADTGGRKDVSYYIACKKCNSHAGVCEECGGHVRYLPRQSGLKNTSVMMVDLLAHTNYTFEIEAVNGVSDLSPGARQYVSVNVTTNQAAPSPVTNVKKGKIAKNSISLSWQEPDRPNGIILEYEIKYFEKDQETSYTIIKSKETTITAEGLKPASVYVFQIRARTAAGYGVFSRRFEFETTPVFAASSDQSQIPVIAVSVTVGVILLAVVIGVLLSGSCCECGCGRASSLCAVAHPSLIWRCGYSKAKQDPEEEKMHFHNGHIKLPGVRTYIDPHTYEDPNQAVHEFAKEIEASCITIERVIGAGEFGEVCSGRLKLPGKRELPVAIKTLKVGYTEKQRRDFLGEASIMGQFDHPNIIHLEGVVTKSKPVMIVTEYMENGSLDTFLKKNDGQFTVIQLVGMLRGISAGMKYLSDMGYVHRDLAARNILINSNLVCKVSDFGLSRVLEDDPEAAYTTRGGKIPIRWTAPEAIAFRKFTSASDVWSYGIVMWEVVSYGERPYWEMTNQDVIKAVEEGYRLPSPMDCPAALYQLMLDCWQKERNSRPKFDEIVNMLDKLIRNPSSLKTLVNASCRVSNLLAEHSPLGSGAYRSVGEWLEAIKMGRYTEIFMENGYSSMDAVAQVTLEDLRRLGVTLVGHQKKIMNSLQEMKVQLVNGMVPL
CSNK1E (human), sequence (P49674 whole entry, looked up): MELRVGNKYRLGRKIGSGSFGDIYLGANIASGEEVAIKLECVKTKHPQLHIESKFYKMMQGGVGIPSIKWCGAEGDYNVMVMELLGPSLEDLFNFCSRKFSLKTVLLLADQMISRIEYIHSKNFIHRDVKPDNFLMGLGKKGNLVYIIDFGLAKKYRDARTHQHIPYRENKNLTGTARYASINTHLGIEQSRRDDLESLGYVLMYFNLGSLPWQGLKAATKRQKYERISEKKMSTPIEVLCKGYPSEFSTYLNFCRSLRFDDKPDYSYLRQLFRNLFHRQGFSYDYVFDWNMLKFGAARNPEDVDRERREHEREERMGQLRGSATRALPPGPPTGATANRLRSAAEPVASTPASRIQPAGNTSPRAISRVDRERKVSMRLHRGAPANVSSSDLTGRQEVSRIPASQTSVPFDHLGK
TSSK1B (human), sequence (Q9BXA7 whole entry, looked up): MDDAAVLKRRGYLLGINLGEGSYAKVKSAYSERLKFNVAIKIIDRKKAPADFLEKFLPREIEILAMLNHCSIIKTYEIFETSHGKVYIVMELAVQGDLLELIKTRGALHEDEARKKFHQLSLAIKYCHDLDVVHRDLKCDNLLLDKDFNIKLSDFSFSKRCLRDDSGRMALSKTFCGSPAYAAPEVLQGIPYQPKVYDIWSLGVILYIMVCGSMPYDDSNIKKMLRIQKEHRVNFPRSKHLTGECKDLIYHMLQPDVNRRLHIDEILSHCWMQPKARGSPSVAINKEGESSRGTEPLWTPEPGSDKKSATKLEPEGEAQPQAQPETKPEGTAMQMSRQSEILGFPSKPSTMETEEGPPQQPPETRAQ
EPHA2 (human), sequence (P29317 whole entry, looked up): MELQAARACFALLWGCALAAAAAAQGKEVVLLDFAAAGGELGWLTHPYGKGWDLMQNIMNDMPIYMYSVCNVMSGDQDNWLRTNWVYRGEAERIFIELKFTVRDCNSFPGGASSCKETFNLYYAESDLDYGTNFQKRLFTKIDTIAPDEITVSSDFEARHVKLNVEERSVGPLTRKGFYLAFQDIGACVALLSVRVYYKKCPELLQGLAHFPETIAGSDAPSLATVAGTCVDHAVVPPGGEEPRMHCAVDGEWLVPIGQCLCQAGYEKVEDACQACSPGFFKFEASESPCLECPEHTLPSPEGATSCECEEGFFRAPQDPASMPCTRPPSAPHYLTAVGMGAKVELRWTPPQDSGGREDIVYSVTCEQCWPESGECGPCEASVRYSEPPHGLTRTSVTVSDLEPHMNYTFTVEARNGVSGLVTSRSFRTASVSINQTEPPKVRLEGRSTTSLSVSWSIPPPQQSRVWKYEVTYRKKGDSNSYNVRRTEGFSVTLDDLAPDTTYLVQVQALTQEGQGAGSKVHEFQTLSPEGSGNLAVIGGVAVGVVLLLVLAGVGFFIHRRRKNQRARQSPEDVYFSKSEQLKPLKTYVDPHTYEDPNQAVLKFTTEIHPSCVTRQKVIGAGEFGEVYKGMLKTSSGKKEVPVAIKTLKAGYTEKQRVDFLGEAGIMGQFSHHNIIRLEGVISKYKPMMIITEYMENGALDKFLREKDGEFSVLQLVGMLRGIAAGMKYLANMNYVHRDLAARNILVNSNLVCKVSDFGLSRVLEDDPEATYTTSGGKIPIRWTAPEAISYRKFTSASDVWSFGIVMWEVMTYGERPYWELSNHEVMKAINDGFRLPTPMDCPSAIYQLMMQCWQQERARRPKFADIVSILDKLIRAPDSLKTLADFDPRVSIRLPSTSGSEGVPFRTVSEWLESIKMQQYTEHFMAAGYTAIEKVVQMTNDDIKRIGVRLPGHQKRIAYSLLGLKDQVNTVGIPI
AKT3 (human), sequence (Q9Y243 whole entry, looked up): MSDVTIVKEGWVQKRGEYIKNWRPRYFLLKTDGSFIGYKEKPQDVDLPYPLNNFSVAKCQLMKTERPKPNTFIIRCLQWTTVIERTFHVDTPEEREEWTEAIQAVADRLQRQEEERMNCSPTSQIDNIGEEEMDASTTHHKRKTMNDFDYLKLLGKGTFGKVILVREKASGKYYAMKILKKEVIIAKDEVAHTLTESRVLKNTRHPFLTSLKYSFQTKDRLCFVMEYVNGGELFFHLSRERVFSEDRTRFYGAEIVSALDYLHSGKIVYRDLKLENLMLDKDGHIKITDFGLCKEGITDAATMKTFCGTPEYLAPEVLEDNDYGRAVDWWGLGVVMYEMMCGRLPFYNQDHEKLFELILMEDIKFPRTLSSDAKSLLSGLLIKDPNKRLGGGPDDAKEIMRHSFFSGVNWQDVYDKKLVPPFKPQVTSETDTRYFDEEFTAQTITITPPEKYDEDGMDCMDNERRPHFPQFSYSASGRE
TGFBR2 (human), sequence (P37173 whole entry, looked up): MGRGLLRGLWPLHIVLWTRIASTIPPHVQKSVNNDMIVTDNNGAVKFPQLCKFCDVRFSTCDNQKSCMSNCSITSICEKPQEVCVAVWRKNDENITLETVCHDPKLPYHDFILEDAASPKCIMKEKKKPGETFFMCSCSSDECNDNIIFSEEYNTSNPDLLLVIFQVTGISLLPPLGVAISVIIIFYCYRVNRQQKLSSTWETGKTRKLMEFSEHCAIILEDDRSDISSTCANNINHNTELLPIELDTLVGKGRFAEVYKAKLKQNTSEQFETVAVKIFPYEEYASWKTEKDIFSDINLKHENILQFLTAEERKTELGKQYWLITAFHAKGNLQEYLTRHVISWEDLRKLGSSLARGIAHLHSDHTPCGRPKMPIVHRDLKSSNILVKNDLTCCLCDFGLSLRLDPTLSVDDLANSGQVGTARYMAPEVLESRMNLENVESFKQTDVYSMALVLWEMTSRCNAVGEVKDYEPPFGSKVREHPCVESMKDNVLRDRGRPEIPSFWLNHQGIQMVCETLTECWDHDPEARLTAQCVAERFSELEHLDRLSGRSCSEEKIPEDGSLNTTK
FGFR4 (human), sequence (P22455 whole entry, looked up): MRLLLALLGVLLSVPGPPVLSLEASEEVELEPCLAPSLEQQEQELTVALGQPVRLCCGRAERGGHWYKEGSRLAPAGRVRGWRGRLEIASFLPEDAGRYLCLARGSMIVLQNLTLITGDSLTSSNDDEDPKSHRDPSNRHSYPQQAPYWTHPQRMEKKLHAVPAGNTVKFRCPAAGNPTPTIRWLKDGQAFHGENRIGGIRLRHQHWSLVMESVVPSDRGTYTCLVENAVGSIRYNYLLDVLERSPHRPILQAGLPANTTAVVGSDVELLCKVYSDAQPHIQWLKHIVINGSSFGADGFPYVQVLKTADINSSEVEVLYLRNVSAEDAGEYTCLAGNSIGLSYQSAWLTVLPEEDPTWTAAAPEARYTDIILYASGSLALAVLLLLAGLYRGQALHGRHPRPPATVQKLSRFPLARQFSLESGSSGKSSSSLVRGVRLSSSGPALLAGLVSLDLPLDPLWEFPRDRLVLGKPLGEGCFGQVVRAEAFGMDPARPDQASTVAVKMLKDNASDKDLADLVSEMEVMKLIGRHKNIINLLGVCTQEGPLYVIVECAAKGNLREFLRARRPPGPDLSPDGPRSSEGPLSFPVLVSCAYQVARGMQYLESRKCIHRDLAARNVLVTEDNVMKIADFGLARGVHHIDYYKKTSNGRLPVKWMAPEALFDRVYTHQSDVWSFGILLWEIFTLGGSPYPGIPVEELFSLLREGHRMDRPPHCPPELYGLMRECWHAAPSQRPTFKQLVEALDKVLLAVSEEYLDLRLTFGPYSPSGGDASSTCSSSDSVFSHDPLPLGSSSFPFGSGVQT
MAPK1 (human), sequence (P28482 whole entry, looked up): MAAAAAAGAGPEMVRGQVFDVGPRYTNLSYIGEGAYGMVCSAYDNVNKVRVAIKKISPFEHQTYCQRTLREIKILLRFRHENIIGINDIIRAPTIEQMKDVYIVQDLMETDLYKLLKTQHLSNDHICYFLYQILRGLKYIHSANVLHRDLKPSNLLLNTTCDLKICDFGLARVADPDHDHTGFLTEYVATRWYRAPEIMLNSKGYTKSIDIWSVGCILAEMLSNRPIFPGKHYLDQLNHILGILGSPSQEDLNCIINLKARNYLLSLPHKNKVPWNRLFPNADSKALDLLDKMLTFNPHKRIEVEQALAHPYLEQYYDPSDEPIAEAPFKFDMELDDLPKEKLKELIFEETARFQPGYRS

Structure (SMILES): O=C1Nc2ccc(Cl)cc2/C1=C/c1cc(Cl)c(O)c(Cl)c1
- residual activity (ADRBK2 (human)): 102%
- residual activity (AKT3 (human)): 96.9%
- residual activity (ALK (human)): 65.8%
- residual activity (CAMK1D (human)): 104%
- residual activity (CDC42BPB (human)): 91.4%
- residual activity (CDK5 CDK5R1 p35 (human)): 94.5%
- residual activity (CDK9 CCNT1 (human)): 95.2%
- residual activity (CHUK (human)): 97%
- residual activity (CLK3 (human)): 90.9%
- residual activity (CSNK1E (human)): 66.6%
- residual activity (CSNK2A2 (human)): 33.3%
- residual activity (EPHA2 (human)): 95%
- residual activity (EPHA5 (human)): 99.4%
- residual activity (ERBB4 (human)): 94.2%
- residual activity (FGFR4 (human)): 98%
- residual activity (GRK4 (human)): 108%
- residual activity (HIPK3 (human)): 91.5%
- residual activity (IKBKB (human)): 93.6%
- residual activity (MAP3K11 (human)): 60.4%
- residual activity (MAPK1 (human)): 84.3%
- residual activity (MAPK12 (human)): 90.5%
- residual activity (MAPK13 (human)): 97.8%
- residual activity (MAPK3 (human)): 88.2%
- residual activity (MARK4 (human)): 78.4%
- residual activity (NLK (human)): 38.9%
- residual activity (NTRK1 (human)): 87.4%
- residual activity (NTRK2 (human)): 61.1%
- residual activity (NTRK3 (human)): 44.8%
- residual activity (PAK3 (human)): 94.3%
- residual activity (PKN2 (human)): 114%
- residual activity (PRKACA (human)): 101%
- residual activity (PRKCE (human)): 100%
- residual activity (PRKG1 (human)): 102% and 96.8%
- residual activity (PRKG2 (human)): 97%
- residual activity (RAF1 (human)): 6.93%
- residual activity (ROCK2 (human)): 90.6%
- residual activity (STK11 (human)): 93.1%
- residual activity (TGFBR2 (human)): 94.9%
- residual activity (TSSK1B (human)): 88.2%
- residual activity (ULK1 (human)): 95%
- residual activity (WNK3 (human)): 90.7%

Structure (SMILES): Nc1ncnc2c1c(-c1ccc(Oc3ccccc3)cc1)cn2C1CCCC1
- residual activity (ADRBK2 (human)): 92.2%
- residual activity (AKT3 (human)): 98.2%
- residual activity (ALK (human)): 80.6%
- residual activity (CAMK1D (human)): 50.3%
- residual activity (CDC42BPB (human)): 107%
- residual activity (CDK9 CCNT1 (human)): 104%
- residual activity (CHUK (human)): 99.7%
- residual activity (CLK3 (human)): 96.9%
- residual activity (CSNK1E (human)): 22.3%
- residual activity (CSNK2A2 (human)): 74.7%
- residual activity (EPHA2 (human)): 100%
- residual activity (EPHA5 (human)): 108%
- residual activity (ERBB4 (human)): 11.9%
- residual activity (FGFR4 (human)): 98%
- residual activity (GRK4 (human)): 103%
- residual activity (HIPK3 (human)): 116%
- residual activity (IKBKB (human)): 101%
- residual activity (MAP3K11 (human)): 92.9%
- residual activity (MAPK1 (human)): 80.7%
- residual activity (MAPK12 (human)): 97.6%
- residual activity (MAPK13 (human)): 95.3%
- residual activity (MAPK3 (human)): 108%
- residual activity (MARK4 (human)): 85.2%
- residual activity (NLK (human)): 96.9%
- residual activity (NTRK1 (human)): 94.3%
- residual activity (NTRK2 (human)): 87%
- residual activity (NTRK3 (human)): 67.9%
- residual activity (PAK3 (human)): 98.4%
- residual activity (PKN2 (human)): 104%
- residual activity (PRKACA (human)): 100%
- residual activity (PRKCE (human)): 96%
- residual activity (PRKCG (human)): 96.1%
- residual activity (PRKG1 (human)): 103% and 96.4%
- residual activity (PRKG2 (human)): 114%
- residual activity (RAF1 (human)): 71.3%
- residual activity (ROCK2 (human)): 90.5%
- residual activity (STK11 (human)): 101%
- residual activity (TGFBR2 (human)): 166%
- residual activity (TSSK1B (human)): 114%
- residual activity (ULK1 (human)): 106%
- residual activity (WNK3 (human)): 85.2%

Structure (SMILES): CC(C)N(CCC(=O)c1ccc2ccccc2c1)Cc1ccccc1
- residual activity (ADRBK2 (human)): 88.9%
- residual activity (AKT3 (human)): 95.8%
- residual activity (ALK (human)): 88.9%
- residual activity (CDC42BPB (human)): 95%
- residual activity (CDK5 CDK5R1 p35 (human)): 103%
- residual activity (CDK9 CCNT1 (human)): 96.4%
- residual activity (CHUK (human)): 96.4%
- residual activity (CLK3 (human)): 99.6%
- residual activity (CSNK1E (human)): 96.1%
- residual activity (CSNK2A2 (human)): 95.4%
- residual activity (EPHA5 (human)): 118%
- residual activity (ERBB4 (human)): 91.7%
- residual activity (FGFR4 (human)): 103%
- residual activity (GRK4 (human)): 94.9%
- residual activity (HIPK3 (human)): 115%
- residual activity (IKBKB (human)): 101%
- residual activity (MAP3K11 (human)): 97%
- residual activity (MAPK1 (human)): 87.4%
- residual activity (MAPK12 (human)): 96.2%
- residual activity (MAPK13 (human)): 96.2%
- residual activity (MAPK3 (human)): 98.5%
- residual activity (MARK4 (human)): 89.3%
- residual activity (NLK (human)): 94.8%
- residual activity (NTRK1 (human)): 94.8%
- residual activity (NTRK2 (human)): 92.1%
- residual activity (NTRK3 (human)): 103%
- residual activity (PAK3 (human)): 98.6%
- residual activity (PKN2 (human)): 98.7%
- residual activity (PRKCE (human)): 95%
- residual activity (PRKCG (human)): 92.7%
- residual activity (PRKG1 (human)): 101% and 102%
- residual activity (PRKG2 (human)): 139%
- residual activity (RAF1 (human)): 87.3%
- residual activity (ROCK2 (human)): 92.8%
- residual activity (STK11 (human)): 94.2%
- residual activity (TGFBR2 (human)): 98.8%
- residual activity (TSSK1B (human)): 100%
- residual activity (ULK1 (human)): 104%
- residual activity (WNK3 (human)): 97%

Structure (SMILES): Cc1ccc(Nc2nccc(N(C)c3ccc4c(C)n(C)nc4c3)n2)cc1S(N)(=O)=O
- residual activity (ADRBK2 (human)): 99.3%
- residual activity (AKT3 (human)): 93.3%
- residual activity (ALK (human)): 85.3%
- residual activity (CAMK1D (human)): 91.5%
- residual activity (CDC42BPB (human)): 99.9%
- residual activity (CDK5 CDK5R1 p35 (human)): 99.3%
- residual activity (CDK9 CCNT1 (human)): 91.5%
- residual activity (CHUK (human)): 99.4%
- residual activity (CLK3 (human)): 107%
- residual activity (CSNK1E (human)): 97.5%
- residual activity (CSNK2A2 (human)): 99.8%
- residual activity (EPHA2 (human)): 85.7%
- residual activity (EPHA5 (human)): 99.7%
- residual activity (ERBB4 (human)): 86.9%
- residual activity (FGFR4 (human)): 68.3%
- residual activity (GRK4 (human)): 91.7%
- residual activity (HIPK3 (human)): 103%
- residual activity (IKBKB (human)): 86.9%
- residual activity (MAPK1 (human)): 103%
- residual activity (MAPK12 (human)): 93.7%
- residual activity (MAPK13 (human)): 94.6%
- residual activity (MAPK3 (human)): 102%
- residual activity (MARK4 (human)): 98%
- residual activity (NLK (human)): 69%
- residual activity (NTRK1 (human)): 91.8%
- residual activity (NTRK2 (human)): 91.5%
- residual activity (NTRK3 (human)): 87.8%
- residual activity (PAK3 (human)): 90.6%
- residual activity (PKN2 (human)): 106%
- residual activity (PRKACA (human)): 94.5%
- residual activity (PRKCE (human)): 100%
- residual activity (PRKCG (human)): 93.5%
- residual activity (PRKG1 (human)): 103% and 95.1%
- residual activity (PRKG2 (human)): 96%
- residual activity (RAF1 (human)): 9.43%
- residual activity (ROCK2 (human)): 91.1%
- residual activity (STK11 (human)): 92.1%
- residual activity (TGFBR2 (human)): 100%
- residual activity (TSSK1B (human)): 99%
- residual activity (ULK1 (human)): 97.3%
- residual activity (WNK3 (human)): 98.6%

Structure (SMILES): O=C1NC(=O)c2c1c1c3ccccc3n3c1c1c2c2ccccc2n1C1CCC3O1
- residual activity (ADRBK2 (human)): 101%
- residual activity (AKT3 (human)): 27.1%
- residual activity (ALK (human)): 36.9%
- residual activity (CAMK1D (human)): 33.6%
- residual activity (CDK5 CDK5R1 p35 (human)): 23.3%
- residual activity (CDK9 CCNT1 (human)): 8.52%
- residual activity (CHUK (human)): 106%
- residual activity (CLK3 (human)): 97%
- residual activity (CSNK1E (human)): 47.3%
- residual activity (CSNK2A2 (human)): 4.47%
- residual activity (EPHA2 (human)): 91.3%
- residual activity (EPHA5 (human)): 78.7%
- residual activity (ERBB4 (human)): 72.5%
- residual activity (FGFR4 (human)): 70.4%
- residual activity (GRK4 (human)): 77%
- residual activity (HIPK3 (human)): 49.9%
- residual activity (IKBKB (human)): 97.8%
- residual activity (MAP3K11 (human)): 1.37%
- residual activity (MAPK1 (human)): 88.7%
- residual activity (MAPK12 (human)): 113%
- residual activity (MAPK13 (human)): 114%
- residual activity (MAPK3 (human)): 102%
- residual activity (MARK4 (human)): 5.31%
- residual activity (NLK (human)): 74.1%
- residual activity (NTRK1 (human)): 4.98%
- residual activity (NTRK2 (human)): 6.87%
- residual activity (NTRK3 (human)): 1.41%
- residual activity (PAK3 (human)): 41.7%
- residual activity (PKN2 (human)): 15.9%
- residual activity (PRKACA (human)): 44.7%
- residual activity (PRKCE (human)): 28.4%
- residual activity (PRKCG (human)): 32.8%
- residual activity (PRKG1 (human)): 35.7% and 41.3%
- residual activity (PRKG2 (human)): 6.01%
- residual activity (RAF1 (human)): 121%
- residual activity (ROCK2 (human)): 73.7%
- residual activity (STK11 (human)): 50.5%
- residual activity (TGFBR2 (human)): 70.3%
- residual activity (TSSK1B (human)): 17.7%
- residual activity (ULK1 (human)): 73.1%
- residual activity (WNK3 (human)): 86%
